# From patent publication US8507219B2, “Method of treating inflammation with statins” (MUSC Foundation for Research Development, priority 1997, dated 2013)
# Columns and labels:
# NF-kβ = type: cell-based, rat; conditions: LPS 1.0 μg/ml, 1 h
# Method: Preparation of Nuclear Extracts and Electrophoretic Mobility shift assay Nuclear extracts from stimulated or unstimulated astrocytes (1×10^7 cells) were prepared using the method of Dignam et al. (1983) with slight modification. Cells were harvested, washed twice with ice-cold phosphate-buffered saline and lysed in 400 μl of buffer A (10 mM HEPES, pH 7.9, 10 mM KCl, 2 mM MgCl2, 0.5 mM DTT, 1 mM PMSF, 5 μg/ml aprotinin, 5 μg/ml pepstatin A, and 5 μg/ml leupeptin (Sigma, St. Louis, Mo.) containing 0.1% Nondet P-40 for 15 min on ice, vortexed vigorously for 15 s, and centrifuged at 14,000 rpm for 30 s. The pelleted nuclei were resuspended in 40 μl of buffer B (20 mM HEPES, pH 7.9, 25% (v/v) glycerol, 0.42 M NaCl, 1.5 mM MgCl2, 0.2 mM EDTA, 0.5 mM DTT, 1 mM PMSF, 5 μg/ml aprotinin, 5 μg/ml pepstatin A, and 5 μg/ml leupeptin). After 30 min on ice, lysates were centrifuged at 14,000 rpm for 10 min. Supernatants containing the nuclear proteins were diluted with 20 μl of modified buffer C (20 mM HEPES, pH 7.9, 20% (v/v) glycerol, 0.05 M KCl, 0.2 mM EDTA, 0.5 mM DTT, and 0.5 mM PMSF) and stored at −70° C. until use. Nuclear extracts were used for the electrophoretic mobility shift assay using the NF-kβ DNA binding protein detection system kit (GIBCO/BRL), according to the manufacturer's protocol.
# Preparation of nuclear extracts and electrophoretic mobility shift assay Nuclear extracts from stimulated or unstimulated astrocytes (1×10^7 cells) were prepared as described (Dignam et al., 1983) with slight modification. Cells were harvested, washed twice with ice-cold phosphate-buffered saline and lysed in 400 μl of buffer A (10 mM HEPES, pH 7.9, 10 mM KCl, 2 mM MgCl2, 0.5 mM DTT, 1 mM PMSF, 5 μg/ml aprotinin, 5 μg/ml pepstatin A, and 5 μg/ml leupeptin) containing 0.1% Nonidet P40 for 15 min on ice, vortexed vigorously for 15 s, and centrifuged at 14,000 rpm for 30 s. […]
# [1] = tested on: iNOS activity in rat primary astrocytes; experiment: iNOS activity (arginine to citrulline) in homogenates of treated rat primary astrocytes; type: cell-based; conditions: 10 μM
# Method: NOS activity was measured directly by production of L-[2,3,4,5-^3H]citrulline from L-[2,3,4,5-^3H] arginine (Feinstein et al., 1994a). […] Assays were carried out for 30 to 40 min and the production of L-[2,3,4,5-^3H] citrulline was linear. The reactions were stopped by addition of 800 μl of ice-cold 20 mM HEPES (pH 5.5) followed by addition of 2 ml of Dowex-50W equilibrated in the same buffer. The samples were then centrifuged and the concentration of L-[^3H]citrulline was determined in the supernatant by liquid scintillation counting.
# Dose Dependence of Forskolin Inhibition of the LPS Stimulation of iNOS Astrocytes were incubated with different concentrations of forskolin 15 min before the addition of 1 μg/ml LPS, and after 24 h the iNOS activity was measured as nitrite concentrations in the supernatant and conversion of arginine to citrulline in the cellular homogenates (FIG. 1). The level of nitrite and iNOS activity were inhibited to a similar degree at all the concentrations of forskolin tested. […] . […] This may be due to the fact that PKA was already completely activated in extracts of cells incubated with 10 μM forskolin. The PKA activity increased with the increase in forskolin concentration. The reciprocal relationship of production of NO and iNOS activity with PKA activity supports the conclusion that PKA plays a pivotal role in the regulation of iNOS expression in astrocytes.
# [2] = tested on: cultured skin fibroblasts of X-ALD; experiment: VLCFA ratios (C26:0/C22:0, C24:0/C22:0) in X-ALD skin fibroblasts; type: cell-based, human; conditions: about 15 days of treatment
# [3] = tested on: control human skin fibroblasts; experiment: β-oxidation of lignoceric acid in control human skin fibroblasts; type: cell-based
SMILES,LPS-induced activation of NF-kβ (NF-kβ),LPS induced iNOS activity and PKA activity [1],ratios of C26:0/C22:0 and C24:0/C22:0 / level of VLCFA [2],Lignoceric acid β-oxidation [3] [pmol/h/mg protein]
COc1cccc(-c2cc(=O)c3ccccc3o2)c1N [PD 98059],inhibits the LPS-induced activation of NF-kB and the induction of iNOS in astrocytes,–,–,–
"C=C[C@@]1(C)CC(=O)[C@@H]2[C@@]3(C)CCCC(C)(C)[C@@H]3[C@H](O)[C@H](OC(C)=O)[C@@]2(C)O1 [dideoxyforskolin, 1,9-dideoxyforskolin]",–,neither inhibited the LPS induced iNOS activity nor stimulated the PKA activity,had no effect on the ratios of C26:0/C22:0 and C24:0/C22:0,571.4 ± 39.6
